Measurements from BindingDB's records for doi:10.1016/S0960-894X(97)00219-9 (1997).

Biological target: T1, Cysteinyl leukotriene receptor 1 (Cavia porcellus, UniProt Q2NNR5)
T1 sequence (Q2NNR5 whole entry): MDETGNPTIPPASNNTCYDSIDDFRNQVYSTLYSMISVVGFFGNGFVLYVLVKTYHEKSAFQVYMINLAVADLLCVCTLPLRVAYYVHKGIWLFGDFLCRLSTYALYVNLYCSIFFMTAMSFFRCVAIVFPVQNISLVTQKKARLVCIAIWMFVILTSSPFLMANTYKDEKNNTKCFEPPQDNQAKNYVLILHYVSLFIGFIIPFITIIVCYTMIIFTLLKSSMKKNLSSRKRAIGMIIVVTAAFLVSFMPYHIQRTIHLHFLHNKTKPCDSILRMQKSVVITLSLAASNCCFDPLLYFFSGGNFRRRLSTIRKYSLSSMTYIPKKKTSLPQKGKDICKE
Experiment: ChEBML_52039
Procedure: Dissociation constant for CysLT1 receptor was determined by the displacement of [3H]LTD4 from guinea pig lung membranes

Kd: 30.1 µM
SMILES: COc1cc(C(=O)NS(=O)(=O)c2ccccc2)ccc1Cn1ncc2ccc(NC(=O)OC3CCCC3)cc21
